Test results reported in patent US20040009170A1, “Alpha-melanocyte stimulating hormone peptides protection in organ transplantation” (priority 2002, published 2004).

Experiments:
[1] = test system: heart grafts (Brown Norway into Lewis rats); test: Histopathological evaluation and ED1 immunohistochemistry of heart grafts; assay type: in vivo, rat
Method: Experiments were performed to determine whether NDP-α-MSH treatment prolongs allograft survival. For this purpose, NDP-α-MSH or saline was administered from the time of transplantation until spontaneous rejection. In such experiments (n=7), rats were sacrificed when there was loss of palpable contractile activity of the graft. Studies were performed focusing on the influence of NDP-α-MSH on graft histopathology and transcripts involved in inflammation and rejection. For these studies, rats (n=6) were sacrificed 1 or 4 days after transplantation. NDP-α-MSH or saline was administered from day 0 until the sacrifice.
Heart grafts, removed from rats on day 1, 4, or at the time of rejection, were sectioned coronally. Two sections were snap-frozen in liquid nitrogen and stored at −80° C. for RNA extraction and RT-PCR assays. One section was fixed in 10% buffered formalin and paraffin-embedded for light microscopy examination.
Histopathological evaluation was then performed. Three μm coronal sections of heart grafts were stained with hematoxylin and eosin. Histopathological lesions were scored by two blinded observers using a 5-point scale according to combined assessments of edema (absent, perivascular/mild interstitial, subendocardial, diffuse interstitial, massive); inflammatory cell infiltration (absent, perivascular, subendocardial, diffuse interstitial, massive), and myocytolysis (absent, focal, massive): 0=minimum damage, 1+=mild damage, 2+=moderate damage, 3+=severe damage, and 4+=maximum damage.
Analysis of graft infiltrating monocytes/macrophages was performed through immunohistochemical detection of ED1-positive cells. Sections were stained using the peroxidase-antiperoxidase (PAP) technique, after incubation with mouse anti-rat ED 1 or control antibody (Santa Cruz Biotech, Santa Cruz, Calif., USA). Slides were counterstained with hematoxylin and eosin.
Statistical analysis was performed using SigmaStat statistical software (Jandel Scientific GmbH, Germany). Values are expressed as mean±SEM. Unpaired Student's t test was used to compare differences between values in histological scores. Difference in median graft survival time was evaluated using the Mann-Whitney Rank Sum Test. A probability value<0.05 was considered statistically significant.

[2] = test system: donor cardiac grafts (Brown Norway) transplanted into recipient (Lewis) rats; test: Heterotopic heart transplantation in rats: allograft survival; assay type: in vivo, rat
Excerpt: Adult inbred Brown Norway (donor) and Lewis (recipient) male rats, weighing 200-300 g were used in this study (Charles River, Calco, Italy). Animals were maintained at the animal care facilities of the Department of Hepatology, Ospedale Maggiore di Milano, Italy, under standard temperature, humidity, and time-regulated light conditions. Water and food were provided ad libitum. All animals received care in compliance with the Principles of Laboratory Animal Care, formulated by the National Society of Medical Research, and the Guide for the Care and Use of Laboratory Animals, prepared by the National Academy of Sciences and published by the National Institutes of Health (NIH Publication No. 8623, revised 1985).
Before transplantation, animals were anesthetized with an intraperitoneal injection of 125-mg/kg ketamine. During anesthesia, heart rate, ventilation rate, and temperature were closely monitored. Donor cardiac grafts (Brown Norway) were transplanted into the abdominal cavity of the recipient (Lewis) rats using the technique described by Ono and Lindsey. […] Graft function was monitored by palpation through the abdominal wall twice daily. […]
Statistical analysis was performed using SigmaStat statistical software (Jandel Scientific GmbH, Germany). Values are expressed as mean±SEM. […] Difference in median graft survival time was evaluated using the Mann-Whitney Rank Sum Test. […]

[3] = Plasma nitrite (NO2-) determination after heart transplantation (Griess); assay type: in vivo, rat; conditions: all intervals (day 1, day 4, rejection)
Method: Plasma was separated by centrifugation, aliquoted, and stored at −80° C.
Nitric oxide determinations were performed. Specifically, plasma nitrite concentration was determined at times of sacrifice as a measure of nitric oxide release. Nitrates (NO3^−) were converted into nitrites (NO2^−) by treatment of serum with nitrate reductase (Boehringer Mannheim Italia SpA, Milan, Italy). After enzymatic reduction, samples were mixed with equal amounts of Griess reagent (sulfanilamide 1%, napthlethylenediamide 0.1% in phosphoric acid 0.25%). Samples were incubated at room temperature for 10 min and absorbency was measured at 540 nm using a microplate automatic reader.

[4] = test system: proteolytic enzymes; conditions: cited from earlier work
[5] = depending upon the assay employed; cited from earlier work
[6] = 4 days after transplantation, vs untreated
[7] = day 1 after transplantation, vs untreated

Nle^4DPhe^7-α-MSH [NDP-α-MSH]
ED1-positive cells infiltrating the graft [1, 6]: fewer and dispersed | Inflammation and edema [1, 6]: milder and mostly restricted to the subendocardial region | Histopathological score of heart grafts ([1]; 4 days after transplantation, untreated 10.8±0.80, p<0.01): 7.0±0.64 | Histology of rejected hearts, treated vs untreated ([1]; at time of rejection): no significant differences | Inflammatory cell infiltration [1, 7]: much less | Intragraft edema [1, 7]: milder and generally restricted to the perivascular spaces | Histopathological score of heart grafts ([1]; day 1 after transplantation, mean±SEM, untreated 8.7±0.25, p<0.001): 3.0±0.90 | Median graft survival ([2]; 100 μg i.p. every 12 h from 1 h before transplantation until rejection, no immunosuppression, untreated 6 days, p<0.001): 10 days | Graft survival time, range ([2]; 100 μg i.p. every 12 h until rejection, untreated range 6-8): 9 to 11 days | Increases in plasma NO2- concentration vs untreated [3]: significantly lower | Inactivation by proteolytic enzymes [4]: resistant | Activity relative to the natural molecule [5]: 10- to 1000 times
